Experimental data from ChEMBL document CHEMBL1158332, “Saniculoside N from Sanicula europaea L” (J Nat Prod, 1997).

Test system: Human immunodeficiency virus
Test: Inhibition of HIV reverse transcriptase at 200 ug/ml

Structure (SMILES)	inhibition [%]
O=C(/C=C/c1ccc(O)c(O)c1)O[C@H](Cc1ccc(O)c(O)c1)C(=O)O	57.4
C/C=C(\C)C(=O)O[C@H]1[C@H](O)[C@@]2(CO)[C@H](CC1(C)C)C1=CC[C@@H]3[C@@]4(C)CC[C@H](O[C@@H]5O[C@H](C(=O)OCCC)[C@@H](O)[C@H](O[C@@H]6O[C@H](CO)[C@@H](O[C@@H]7OC[C@@H](O)[C@H](O)[C@H]7O)[C@H](O)[C@H]6O)[C@H]5O)C(C)(C)[C@@H]4CC[C@@]3(C)[C@]1(C)[C@@H](O)[C@H]2O	20.1
O=C(O)/C=C/c1ccc(O)c(O)c1	0
